Measured values from patent US20230295201A1 (Gilead Sciences, Inc., priority 2020, published 2023).
pEC50: −log10 of the molar value. Read-outs that look alike come from different tables or passages of the source.

Tests used:
Assay type in all cases: cell-based
[1] = tested on: HCV replicon 1B; assay: HCV Rep 1B EC50 (replicon luciferase)
Description: (§1) Compounds were serially diluted in ten steps of 1:3 dilutions in 384-well plates. All serial dilutions were performed in four replicates per compound within the same 384-well plate. […] To each well of a black polystyrene 384-well plate (Greiner Bio-one, Monroe, NC), 90 μL of cell culture medium (without Geneticin) containing 2000 suspended HCV replicon cells was added with a Biotek μFlow workstation. For compound transfer into cell culture plates, 0.4 μL of compound solution from the compound serial dilution plate was transferred to the cell culture plate on a Biomek FX workstation. The DMSO concentration in the final assay wells was 0.44%. The plates were incubated for 3 days at 37° C. with 5% CO2 and 85% humidity. The HCV replicon assay was a multiplex assay, able to assess both cytotoxicity and antireplicon activity from the same well. The CC50 assay was performed first. The media in the 384-well cell culture plate was aspirated, and the wells were washed four times with 100 μL of PBS each, using a Biotek ELX405 plate washer. A volume of 50 μL of a solution containing 400 nM calcein AM (Anaspec, Fremont, CA) in 1×PBS was added to each well of the plate with a Biotek μFlow workstation. The plate was incubated for 30 min at room temperature before the fluorescence signal (excitation 490 nm, emission 520 nm) was measured with a Perkin-Elmer Envision plate reader. The EC50 assay was performed in the same wells as the CC50 assay. The calcein-PBS solution in the 384-well cell culture plate was aspirated with a Biotek ELX405 plate washer. A volume of 20 μL of Dual-Glo luciferase buffer (Promega, Madison, WI) was added to each well of the plate with a Biotek μFlow Workstation. The plate was incubated for 10 min at room temperature. A volume of 20 μL of a solution containing a 1:100 mixture of Dual-Glo Stop & Glo substrate (Promega, Madison, WI) and Dual-Glo Stop & Glo buffer (Promega, Madison, WI) was added to each well of the plate with a Biotek μFlow Workstation. The plate was then incubated at room temperature for 10 min before the luminescence signal was measured with a Perkin-Elmer Envision Plate Reader.

[2] = tested on: HCV replicon 2A; assay: HCV Rep 2A EC50 (replicon luciferase)
Description: as §1

[3] = tested on: Dengue serotype 2 New Guinea C (NGC) strain; assay: DENV-2 Huh-7 EC50 (qPCR in Huh7 cells)
How it was run: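 Huh7 cells infected 2 h at 37 °C with DENV-2 NGC at MOI 0.1, then plated with graded compound doses (0.25% DMSO) in triplicate. After 48 h, viral RNA quantified by duplex TaqMan RT-qPCR against GAPDH; EC50 normalized to positive control and no-compound wells.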

[4] = tested on: Dengue 2, New Guinea strain (NGC); assay: DENV-2 moDC EC50 (qPCR in human monocyte-derived dendritic cells); conditions: moDCs
Description: Human monocyte-derived dendritic cells (moDCs) were derived from CD14+ monocytes (AllCells) cultured in Human Mo-DC Differentiation medium containing GM-CSF and IL-4 (Miltenyi Biotec). On day 7, moDCs were harvested by mechanical disruption, washed and suspended in serum-free RPMI. moDCs were infected with Vero-derived Dengue 2, New Guinea strain (NGC) at a MOI=0.1 for two hours in serum-free RPMI with gentle agitation at 37° C. Cells were washed and resuspended in 10% serum-containing RPMI (Gibco, supplemented with sodium pyruvate, NEAA, Penicillin-Streptomycin). 10^5 cells were plated in triplicate in 96-well plates with compounds dispensed at graded doses (Hewlett-Packard D300 Digital Dispenser). All wells were normalized to 0.25% DMSO. At 48 hours, cells were washed with 1×PBS and all supernatants removed. Total RNA was extracted using RNEasy 96 plates (Qiagen) and used to generate first-strand cDNA using XLT cDNA 5× Supermix (QuantaBio). cDNA was used as a template in a Taqman qPCR duplex reaction specific to DENV2 viral and GAPDH gene expression. EC50 values were determined using Prism Graphpad software, with normalization to a positive control and no compound negative control wells.

[5] = Hepatitis C virus, 72 h, read-out: HCV Rep 1B EC50, replicon cells, 3 days
[6] = Hepatitis C virus, 72 h, read-out: HCV Rep 2A EC50, replicon cells, 3 days
[7] = Dengue virus, DENV2, Huh-7, 48 h
[8] = Dengue virus, DENV2, Dendritic cell, 48 h
[9] = read-out: HCV Rep 1B EC50, replicon cells, 3 days
[10] = read-out: HCV Rep 2A EC50, replicon cells, 3 days

## CCCCCCCCCCCC(=O)OCCNP(=O)(OC[C@@]1(C#N)O[C@@H](c2ccc3c(N)ncnn23)[C@H](O)[C@@H]1O)Oc1ccccc1 (mixture of isomers) [Example 181, 2-(((((2R,3S,4R,5S)-5-(4-aminopyrrolo[2,1-f][1,2,4]triazin-7-yl)-2-cyano-3,4-dihydroxytetrahydrofuran-2-yl)methoxy)(phenoxy)phosphoryl)amino)ethyl dodecanoate]
[1]; [5]
  pEC50: 6.06
[2]; [6]
  pEC50: 5.78
[3]; [7]
  pEC50: 6.10

## C[C@H](N[P@](=O)(OC[C@@]1(C#N)O[C@@H](c2ccc3c(N)ncnn23)[C@H](O)[C@@H]1O)Oc1ccccc1)C(=O)OC1CCCCC1 (single isomer, unassigned) [Example 6]
[1]; [5]
  pEC50: 6.10
[2]; [6]
  pEC50: 5.90
[4]; [8]
  pEC50: < 5.21
[3]; [7]
  pEC50: 5.79

## C[C@H](N[P@](=O)(OC[C@@]1(C#N)O[C@@H](c2ccc3c(N)ncnn23)[C@H](O)[C@@H]1O)Oc1ccccc1)C(=O)O[C@H]1CC[C@H](C(F)(F)F)CC1 (single isomer, unassigned) [Example 18]
[1]; [5]
  pEC50: 5.96
[2]; [6]
  pEC50: 5.83

## C[C@H](N[P@](=O)(OC[C@@]1(C#N)O[C@@H](c2ccc3c(N)ncnn23)[C@H](O)[C@@H]1O)Oc1ccccc1)C(=O)O[C@H]1CC[C@H](C(C)(C)C)CC1 (single isomer, unassigned) [Example 22]
[3]; [7]
  pEC50: 6.18

## CCC(CC)COC(=O)[C@H](C)N[P@](=O)(OC[C@@]1(C#N)O[C@@H](c2ccc3c(N)ncnn23)[C@H](O)[C@@H]1O)Oc1ccccc1 (single isomer, unassigned) [Example 25]
[1]; [5]
  pEC50: 6.35
[2]; [6]
  pEC50: 6.35
[4]; [8]
  pEC50: 6.28
[3]; [7]
  pEC50: 6.08

## C[C@H](NP(=O)(OC[C@@]1(C#N)O[C@@H](c2ccc3c(N)ncnn23)[C@H](O)[C@@H]1O)Oc1ccccc1)C(=O)OCC1CCCCC1 (single isomer, unassigned) [Example 247]
[1]; [5]
  pEC50: 6.18
[2]; [6]
  pEC50: 5.77
[3]; [7]
  pEC50: 5.89

## C[C@H](NP(=O)(OC[C@@]1(C#N)O[C@@H](c2ccc3c(N)ncnn23)[C@H](O)[C@@H]1O)Oc1ccccc1)C(=O)OCC1CCCCC1 (single isomer, unassigned) [Example 248]
[1]; [9]
  pEC50: 6.30
[2]; [10]
  pEC50: 5.93
[3]; 48 hours
  pEC50: 6.12

## C[C@H](NP(=O)(OC[C@@]1(C#N)O[C@@H](c2ccc3c(N)ncnn23)[C@H](O)[C@@H]1O)Oc1ccccc1)C(=O)OCCC(C)(C)C (single isomer, unassigned) [Example 252]
[1]; [5]
  pEC50: 6.20
[2]; [6]
  pEC50: 5.78
[4]; [8]
  pEC50: 6.55
[3]; [7]
  pEC50: 6.16

## C[C@H](NP(=O)(OC[C@@]1(C#N)O[C@@H](c2ccc3c(N)ncnn23)[C@H](O)[C@@H]1O)Oc1ccccc1)C(=O)OCCC(C)(C)C (single isomer, unassigned) [Example 253]
[1]; [9]
  pEC50: 6.34
[2]; [10]
  pEC50: 6.05
[4]; 48 hours
  pEC50: 6.37
[3]; 48 hours
  pEC50: 6.31

## CCOC(=O)[C@H](C)N[P@](=O)(OC[C@@]1(C#N)O[C@@H](c2ccc3c(N)ncnn23)[C@H](O)[C@@H]1O)Oc1ccccc1 [Example 29, Ethyl ((S)-(((2R,3S,4R,5S)-5-(4-aminopyrrolo[2,1-f][1,2,4]triazin-7-yl)-2-cyano-3,4-dihydroxytetrahydrofuran-2-yl)methoxy)(phenoxy)phosphoryl)-L-alaninate]
[4]; [8]
  pEC50: < 5.30
[3]; [7]
  pEC50: 5.72

## COC(=O)[C@H](C)N[P@](=O)(OC[C@@]1(C#N)O[C@@H](c2ccc3c(N)ncnn23)[C@H](O)[C@@H]1O)Oc1ccccc1 [Example 52, methyl ((S)-(((2R,3S,4R,5S)-5-(4-aminopyrrolo[2,1-f][1,2,4]triazin-7-yl)-2-cyano-3,4-dihydroxytetrahydrofuran-2-yl)methoxy)(phenoxy)phosphoryl)-L-alaninate]
[1]; [5]
  pEC50: 5.40
[2]; [6]
  pEC50: 5.13
[3]; [7]
  pEC50: 5.26

## C[C@H](N[P@](=O)(OC[C@@]1(C#N)O[C@@H](c2ccc3c(N)ncnn23)[C@H](O)[C@@H]1O)Oc1ccccc1)C(=O)OCC(C)(C)C [Example 94]
[1]; replicon cells, 3 days, read-out: HCV Rep 1B EC50
  pEC50: 6.56
[2]; replicon cells, 3 days, read-out: HCV Rep 2A EC50
  pEC50: 6.31
[4]; 48 hours
  pEC50: 6.40
[3]; 48 hours
  pEC50: 6.35

## CCCCCCCCCCCCCCCCOCCCOP(=O)(O)OC[C@@]1(C#N)O[C@@H](c2ccc3c(N)ncnn23)[C@H](O)[C@@H]1O [Example 149, ((2R,3S,4R,5S)-5-(4-aminopyrrolo[2,1-f][1,2,4]triazin-7-yl)-2-cyano-3,4-dihydroxytetrahydrofuran-2-yl)methyl (3-(hexadecyloxy)propyl) hydrogen phosphate]
[1]; Hepatitis C virus, 72 h, replicon cells, 3 days, read-out: HCV Rep 1B EC50
  pEC50: 4.51
[2]; Hepatitis C virus, 72 h, replicon cells, 3 days, read-out: HCV Rep 2A EC50
  pEC50: < 4.35

## CCCCCCCCCCCCOC(=O)[C@H](C)NP(=O)(OC[C@@]1(C#N)O[C@@H](c2ccc3c(N)ncnn23)[C@H](O)[C@@H]1O)Oc1ccccc1 (stereo partly drawn) [Example 191, dodecyl ((((2R,3S,4R,5S)-5-(4-aminopyrrolo[2,1-f][1,2,4]triazin-7-yl)-2-cyano-3,4-dihydroxytetrahydrofuran-2-yl)methoxy)(phenoxy)phosphoryl)-L-alaninate]
[1]; [5]
  pEC50: 4.70
[2]; [6]
  pEC50: 4.47
[4]; [8]
  pEC50: 5.97
[3]; [7]
  pEC50: 4.88

## CCCCCCOC(=O)[C@H](C)NP(=O)(OC[C@@]1(C#N)O[C@@H](c2ccc3c(N)ncnn23)[C@H](O)[C@@H]1O)Oc1ccccc1 (stereo partly drawn) [Example 192, hexyl ((((2R,3S,4R,5S)-5-(4-aminopyrrolo[2,1-f][1,2,4]triazin-7-yl)-2-cyano-3,4-dihydroxytetrahydrofuran-2-yl)methoxy)(phenoxy)phosphoryl)-L-alaninate]
[4]; [8]
  pEC50: 6.27
[3]; [7]
  pEC50: 5.56

## C[C@H](NP(=O)(OC[C@@]1(C#N)O[C@@H](c2ccc3c(N)ncnn23)[C@H](O)[C@@H]1O)Oc1cccc2ccccc12)C(=O)OC1CCCCC1 (stereo partly drawn) [Example 203, cyclohexyl ((((2R,3S,4R,5S)-5-(4-aminopyrrolo[2,1-f][1,2,4]triazin-7-yl)-2-cyano-3,4-dihydroxytetrahydrofuran-2-yl)methoxy)(naphthalen-1-yloxy)phosphoryl)-L-alaninate]
[1]; [5]
  pEC50: 6.48
[2]; [6]
  pEC50: 6.17
[4]; [8]
  pEC50: 6.22
[3]; [7]
  pEC50: 5.76

## C[C@H](NP(=O)(OC[C@@]1(C#N)O[C@@H](c2ccc3c(N)ncnn23)[C@H](O)[C@@H]1O)Oc1ccccc1)C(=O)OCCC(C)(C)C (stereo partly drawn) [Example 251, 3,3-dimethylbutyl ((((2R,3S,4R,5S)-5-(4-aminopyrrolo[2,1-f][1,2,4]triazin-7-yl)-2-cyano-3,4-dihydroxytetrahydrofuran-2-yl)methoxy)(phenoxy)phosphoryl)-L-alaninate]
[1]; [5]
  pEC50: 6.23
[2]; [6]
  pEC50: 5.96
[4]; [8]
  pEC50: 6.94
[3]; [7]
  pEC50: 6.28

## CCC(C)(C)COC(=O)[C@H](C)NP(=O)(OC[C@@]1(C#N)O[C@@H](c2ccc3c(N)ncnn23)[C@H](O)[C@@H]1O)Oc1ccccc1 (stereo partly drawn) [Example 254, 2,2-dimethylbutyl ((((2R,3S,4R,5S)-5-(4-aminopyrrolo[2,1-f][1,2,4]triazin-7-yl)-2-cyano-3,4-dihydroxytetrahydrofuran-2-yl)methoxy)(phenoxy)phosphoryl)-L-alaninate]
[1]; [5]
  pEC50: 6.43
[2]; [6]
  pEC50: 6.10
[4]; [8]
  pEC50: 7.05
[3]; [7]
  pEC50: 6.10
